Test results from patent publication US11246924B2, “Alpha-helical peptide nanofibers as a self-adjuvanting vaccine platform” (Duke University, priority 2016, dated 2022).
Entries after “also recorded” stand apart in the source; their conditions may differ.

Assays:
[1] = system: PEPvIII epitope (EGFRvIII); assay: PEPvIII-specific IgG antibody titers in sera after subcutaneous immunization (ELISA); assay type: in vivo, C57BL/6 mice; details: for PEPvIII-specific IgG antibody response: s.c. primary injection week 0 (2×10^−3 M PEPvIII epitope, 100 μL), half-dose boosts weeks 4 and 7, sera over 18 weeks
Protocol: Vaccine Preparation: To prepare PEPvIII-Coil29 peptide fibers solutions for immunization, the lyophilized peptides were first dissolved in 10×10^−3 M sterile acetate buffer (pH 4) at 8×10^−3 M and incubated overnight at […]. The peptide solutions were subsequently diluted to 2×10^−3 M in 1×PBS, and incubated 3 h at room temperature prior to immunization. For coassembled peptide fiber formation, PEPvIII-Coil29 and PADRE-Coil29 were weight out separately, and mixed on vortex for 5 mins before dissolved in 10×10^−3 M sterile acetate buffer (pH 4), and diluted in the same procedure as PEPvIII-Coil29 nanofiber preparation. To prepare CFA/IFA peptide emulsion for immunization, PEPvIII peptide was initially dissolved in 4×10^−3 M in sterile water, and equal volume of adjuvant solution was mixed in with peptide solution and vortexed for 45 min to bring the final concentration of peptide to 2×10^−3 M for injection.
Mice and Immunizations: Female 057B1/6 mice were purchased from Harlan laboratory and housed at the animal facility at the University of Chicago and Duke University. All procedures were approved by both the University of Chicago Institutional Animal Care and Use Committee (protocol 71-900) and the Duke Institutional Animal Care and Use Committee (protocol A314-15-12 19N). Mice (6-12 weeks old; age-matched within each experiment) were randomly assigned in groups of five for each condition based on previous findings that this size was sufficient to distinguish responding versus nonresponding groups. Anesthetized mice were immunized subcutaneously with the indicated solutions (2×50 μL at the shoulders) and boosted where indicated with half-doses (2×25 μL) after 4 weeks and 7 weeks. Sera were collected from the submandibular (cheek) vein for analysis via ELISA. Mice were sacrificed 7 d after the final immunization, and the cells from the draining lymph nodes (axillary, brachial, and inguinal) were collected.
ELISA for Serum Antibodies: Serum was analyzed for antigenspecific Ig (Anti-IgG (H+L), Jackson Immuno Research, Cat #115-035-003) or IgG (gamma-specific, #115-035-071) by ELISA, as previously described (Egelman, E. H., et al. Structure 2015, 23, 280-28). To detect E214-specifi c antibodies, the plate was coated with 5 μg/mL E214-ahx-C (provided by Merck) in PBS or with 5 μg/mL streptavidin (Sigma #85878) followed by 10 μg/mL E214-PEG-biotin in PBS. […]
Peptides were synthesized by solid phase peptide synthesis by methods known in the art. […] Antibody titers were determined using ELISA.
We subsequently investigated the immunogenicity of the Coil29 peptide platform. […] Sera were collected from all the groups at predesignated dates over 18 weeks, and analyzed for peptide-specific antibody titers via ELISA (FIG. 9). […]

[2] = system: SGSG-Coil29 peptide; assay: IgG antibody response against the carrier SGSG-Coil29 sequence (ELISA); assay type: in vivo, C57BL/6 mice; details: boosts weeks 4 and 7
Protocol: Two boost containing half the primary immunization doses were given on week 4 and week 7 for both groups. Sera were collected to measure the IgG production against SGSG-Coil29 peptide using ELISA.
Antibody responses against the carrier (SGSG Coil29 sequence) were also measured by ELISA for both PEPvIII-Coil29 group and PEPvIII-Coil29/PADRE-Coil29 group (FIG. 4).
We subsequently investigated the immunogenicity of the Coil29 peptide platform. Four groups of C57BL/6 mice were immunized subcutaneously with same amount of epitope peptides (2×10^−3M of PEPvIII epitopes, 100 μL per mouse) on week 0, and boosted twice with half of the primary doses (2×10^−3M of PEPvIII epitopes, 50 μL per mouse) at weeks 4 and 7. Mice primed with an emulsion of PEPvIII with complete Fruend's adjuvant (CFA), and boosted with PEPvIII and incomplete Fruend's adjuvant (IFA) served as a positive control. Sera were collected from all the groups at predesignated dates over 18 weeks, and analyzed for peptide-specific antibody titers via ELISA (FIG. 9). […] Strikingly, the second boost at week 7 elevated the antibody titer nearly 100-fold, with the highest titer level reaching about 10^5 at week 9. […] The considerable difference in antibody response between P-C and P-C/P groups underlined the importance of the T cell epitope (PADRE) in promoting antibody responses with the Coil29 platform. […]

[3] = system: splenocytes; assay: T-cell ELISPOT (IL-4, IFNγ) on splenocytes of immunized mice; assay type: cell-based, C57BL/6 mice
Protocol: T-Cell ELIspot: T-cell ELIspots were performed as described. Briefly, 0.25 million cells from the spleen were plated in each well of a 96-well ELIspot plate (Millipore, MSIPS4510), in 200 μL per well. The cells were then stimulated with peptide or left untreated as negative controls. […] Streptavidinalkaline phosphatase (3310-10) was purchased from Mabtech. Spots were developed using substrate Sigmafast BCIP/NBT (Sigma, B5655). Plates were imaged and enumerated using an ELISPOT reader (Cellular Technology, Ltd).
We further analyzed how the PADRE epitope dosing could impact the humoral response in the current platform (FIG. 10). Four groups of mice were immunized with Coil29 nanofibers formulated with different PADRE epitope concentrations ranging from 0 to 0.5×10^−3M in final concentration, and the PEPvIII-specific total IgG titers were monitored over 17 weeks (FIG. 10A). […] However, the difference in antibody response in relationship with PADRE dosing could possibly be caused by several reasons, including the use of a different B cell epitope. We are currently investigating the mechanism of this observation. It highlighted the significance in future application where the formulation of nanofibers should be fine-tuned for different epitopes induce optimal response. […]

[4] = system: dendritic cells (CD11c+MHCII+F4/80−); assay: Uptake of TAMRA labelled peptides by dendritic cells in vivo (flow cytometry of peritoneal lavage fluid); design: species or system C57BL/6 mice; details: TAMRA labelled peptide, i.p. injection, peritoneal lavage 20 h after injection
Protocol: (§1) Antibodies and Flow Cytometry: Antibodies were purchased from eBioscience unless specified. Flow cytometry was performed using LSRII blue (BD). FlowJo (Tree Star Inc.) was used in the analysis of flow data. For analysis of cell recruitment to the peritoneal cavity, cells isolated from i.p. lavage fluid were stained and analyzed as described.
(§2) To examine whether the epitope-bearing nanofibers could be internalized by APCs, C57BL/6 mice were immunized via i.p. injection with 1×PBS, or PEPvIII or P-C peptides fluorescently labelled with TAMRA (FIG. 8). […] The peritoneal lavage fluid was collected 20 h after injections, to analyze for the percentage of TAMRA positive DCs (CD11c^+MHCII^+F4/80^−) and MΦ (CD11c^−F4/80^+) using flow cytometry (FIG. 18).

[5] = system: macrophages (CD11c−F4/80+); assay: Uptake of TAMRA labelled peptides by macrophages in vivo (flow cytometry of peritoneal lavage fluid); design: species or system C57BL/6 mice; details: TAMRA labelled peptide, i.p. injection, peritoneal lavage 20 h after injection
Protocol: as §1, §2

Substance	PEPvIII-specific total IgG titers, PADRE dosing study ([1]; PADRE 0 or 0.05×10^−3 M final concentration, monitored over 17 weeks)	PEPvIII-specific IgG antibody response [1]	PEPvIII-specific IgG antibody response ([1]; listed as PEPvIII-Coil29)	IgG antibody response against SGSG-Coil29 [2]	IgG antibody response against SGSG-Coil29 ([2]; listed as PEPvIII-Coil29)	T cell IFNγ and IL4 response (ELISPOT) ([3]; splenocytes collected on week 18, stimulated with PADRE or PEPvIII peptide)	percentage of TAMRA positive dendritic cells [4]	percentage of TAMRA positive macrophages [5]	concentration above which the ELISPOT response saturated ([3]; preliminary experiments)
NH2-LEEKKGNYVVTDH SGSG QARILEADAEILRAYARILEAHAEILRAQ-Amide (H-LEEKKGNYVVTDHSGSGQARILEADAEILRAYARILEAHAEILRAQ-NH2) [P-C]	negligible levels of IgG	unable to raise a significant level of epitope-specific IgG antibody titer	very weak responses	gradually diminished to a negligible level after the total IgG titers peaked at week 9	self-limiting, returning to baseline levels after 16 weeks	responded to neither PADRE peptide nor PEPvIII peptide	–	–	–
NH2-LEEKKGNYVVTDH-Amide [PEPvIII, reference compound]	–	did not elicit antibody responses; also recorded: failed to elicit any antibody response	–	–	–	–	statistically indistinguishable from the 1×PBS negative control group	statistically indistinguishable from the 1×PBS negative control group	–
NH2-aKXVAAVVTLKAa-Amide [PADRE, reference compound]	–	–	–	–	–	–	–	–	above 0.5×10^−6 M
